{"source": "ChEMBL document CHEMBL1201862", "about": "“PubChem BioAssay data set” (2004)", "experiment_in_all_cases": "NCI tumour cell line growth inhibition, 48 h", "key": {"[1]": {"test_system": "786-0"}, "[2]": {"test_system": "A498"}, "[3]": {"test_system": "A549"}, "[4]": {"test_system": "ACHN"}, "[5]": {"test_system": "CAKI-1"}, "[6]": {"test_system": "CCRF-CEM"}, "[7]": {"test_system": "COLO 205"}, "[8]": {"test_system": "DLD-1"}, "[9]": {"test_system": "DMS-114"}, "[10]": {"test_system": "DMS-273"}, "[11]": {"test_system": "EKVX"}, "[12]": {"test_system": "HCC 2998"}, "[13]": {"test_system": "HCT-116"}, "[14]": {"test_system": "HCT-15"}, "[15]": {"test_system": "HOP-18"}, "[16]": {"test_system": "HOP-62"}, "[17]": {"test_system": "HOP-92"}, "[18]": {"test_system": "HT-29"}, "[19]": {"test_system": "IGROV-1"}, "[20]": {"test_system": "K562"}, "[21]": {"test_system": "KM-20L2"}, "[22]": {"test_system": "KM12"}, "[23]": {"test_system": "LOX IMVI"}, "[24]": {"test_system": "LXFL 529"}, "[25]": {"test_system": "M14"}, "[26]": {"test_system": "Malme-3M"}, "[27]": {"test_system": "NCI-H23"}, "[28]": {"test_system": "NCI-H460"}, "[29]": {"test_system": "NCI-H522"}, "[30]": {"test_system": "OVCAR-3"}, "[31]": {"test_system": "OVCAR-4"}, "[32]": {"test_system": "OVCAR-5"}, "[33]": {"test_system": "OVCAR-8"}, "[34]": {"test_system": "RXF 393"}, "[35]": {"test_system": "RXF 631"}, "[36]": {"test_system": "SF-268"}, "[37]": {"test_system": "SF-295"}, "[38]": {"test_system": "SF-539"}, "[39]": {"test_system": "SK-MEL-28"}, "[40]": {"test_system": "SK-MEL-2"}, "[41]": {"test_system": "SK-OV-3"}, "[42]": {"test_system": "SN12C"}, "[43]": {"test_system": "SNB-19"}, "[44]": {"test_system": "SNB-75"}, "[45]": {"test_system": "SNB-78"}, "[46]": {"test_system": "SW-620"}, "[47]": {"test_system": "U-251"}, "[48]": {"test_system": "UACC-257"}, "[49]": {"test_system": "UACC-62"}, "[50]": {"test_system": "UO-31"}, "[51]": {"test_system": "HL-60"}, "[52]": {"test_system": "M19-MEL"}, "[53]": {"test_system": "MOLT-4"}, "[54]": {"test_system": "NCI-H226"}, "[55]": {"test_system": "RPMI-8226"}, "[56]": {"test_system": "SK-MEL-5"}, "[57]": {"test_system": "SR"}, "[58]": {"test_system": "TK-10"}, "[59]": {"test_system": "XF498"}}, "note": "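Assay format: 96-well plates, 48-hour exposure. GI50: concentration for 50% inhibition of growth.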 Calls of active or inactive are those of the source. No stated cut-off is given here; in the data, active = GI50 up to about 1.1 µM and inactive = higher."}
{"compound": "CCCCCN(CCCCC)C(=O)[C@@H](CCC(=O)OCc1ccccc1)NC(=O)c1cc2ccccc2[nH]1", "values": [{"measurement": "GI50", "setting": "[1]", "value": "> 100 µM (inactive)"}, {"measurement": "GI50", "setting": "[2]", "value": "> 100 µM (inactive)"}, {"measurement": "GI50", "setting": "[3]", "value": "> 100 µM (inactive)"}, {"measurement": "GI50", "setting": "[4]", "value": "> 100 µM (inactive)"}, {"measurement": "GI50", "setting": "[5]", "value": "8.81 µM (inactive)"}, {"measurement": "GI50", "setting": "[6]", "value": "> 100 µM (inactive)"}, {"measurement": "GI50", "setting": "[7]", "value": "6.18 µM (inactive)"}, {"measurement": "GI50", "setting": "[8]", "value": "> 100 µM (inactive)"}, {"measurement": "GI50", "setting": "[9]", "value": "> 100 µM (inactive)"}, {"measurement": "GI50", "setting": "[10]", "value": "> 100 µM (inactive)"}, {"measurement": "GI50", "setting": "[11]", "value": "> 100 µM (inactive)"}, {"measurement": "GI50", "setting": "[12]", "value": "> 100 µM (inactive)"}, {"measurement": "GI50", "setting": "[13]", "value": "> 100 µM (inactive)"}, {"measurement": "GI50", "setting": "[14]", "value": "> 100", "unit": "µM"}, {"measurement": "GI50", "setting": "[15]", "value": "> 100 µM (inactive)"}, {"measurement": "GI50", "setting": "[16]", "value": "> 100 µM (inactive)"}, {"measurement": "GI50", "setting": "[17]", "value": "> 100 µM (inactive)"}, {"measurement": "GI50", "setting": "[18]", "value": "> 100 µM (inactive)"}, {"measurement": "GI50", "setting": "[19]", "value": "> 100 µM (inactive)"}, {"measurement": "GI50", "setting": "[20]", "value": "5.55 µM (inactive)"}, {"measurement": "GI50", "setting": "[21]", "value": "> 100 µM (inactive)"}, {"measurement": "GI50", "setting": "[22]", "value": "7.67 µM (inactive)"}, {"measurement": "GI50", "setting": "[23]", "value": "> 100 µM (inactive)"}, {"measurement": "GI50", "setting": "[24]", "value": "8.85 µM (inactive)"}, {"measurement": "GI50", "setting": "[25]", "value": "> 100 µM (inactive)"}, {"measurement": "GI50", "setting": "[26]", "value": "> 100 µM (inactive)"}, {"measurement": "GI50", "setting": "[27]", "value": "> 100 µM (inactive)"}, {"measurement": "GI50", "setting": "[28]", "value": "> 100 µM (inactive)"}, {"measurement": "GI50", "setting": "[29]", "value": "> 100 µM (inactive)"}, {"measurement": "GI50", "setting": "[30]", "value": "> 100 µM (inactive)"}, {"measurement": "GI50", "setting": "[31]", "value": "> 100 µM (inactive)"}, {"measurement": "GI50", "setting": "[32]", "value": "> 100 µM (inactive)"}, {"measurement": "GI50", "setting": "[33]", "value": "6.15 µM (inactive)"}, {"measurement": "GI50", "setting": "[34]", "value": "> 100 µM (inactive)"}, {"measurement": "GI50", "setting": "[35]", "value": "> 100 µM (inactive)"}, {"measurement": "GI50", "setting": "[36]", "value": "> 100 µM (inactive)"}, {"measurement": "GI50", "setting": "[37]", "value": "> 100 µM (inactive)"}, {"measurement": "GI50", "setting": "[38]", "value": "> 100 µM (inactive)"}, {"measurement": "GI50", "setting": "[39]", "value": "> 100 µM (inactive)"}, {"measurement": "GI50", "setting": "[40]", "value": "> 100 µM (inactive)"}, {"measurement": "GI50", "setting": "[41]", "value": "> 100 µM (inactive)"}, {"measurement": "GI50", "setting": "[42]", "value": "> 100 µM (inactive)"}, {"measurement": "GI50", "setting": "[43]", "value": "> 100 µM (inactive)"}, {"measurement": "GI50", "setting": "[44]", "value": "> 100 µM (inactive)"}, {"measurement": "GI50", "setting": "[45]", "value": "> 100 µM (inactive)"}, {"measurement": "GI50", "setting": "[46]", "value": "> 100 µM (inactive)"}, {"measurement": "GI50", "setting": "[47]", "value": "6.22 µM (inactive)"}, {"measurement": "GI50", "setting": "[48]", "value": "39.3 µM (inactive)"}, {"measurement": "GI50", "setting": "[49]", "value": "6.78 µM (inactive)"}, {"measurement": "GI50", "setting": "[50]", "value": "> 100 µM (inactive)"}]}
{"compound": "CC1(C)C(=O)N(c2ccccc2)C(=O)N1c1nc2ccccc2[nH]1", "values": [{"measurement": "GI50", "setting": "[1]", "value": "> 100 µM (inactive)"}, {"measurement": "GI50", "setting": "[2]", "value": "> 100 µM (inactive)"}, {"measurement": "GI50", "setting": "[3]", "value": "> 100 µM (inactive)"}, {"measurement": "GI50", "setting": "[4]", "value": "> 100 µM (inactive)"}, {"measurement": "GI50", "setting": "[5]", "value": "> 100 µM (inactive)"}, {"measurement": "GI50", "setting": "[6]", "value": "21.4 µM (inactive)"}, {"measurement": "GI50", "setting": "[7]", "value": "49.7 µM (inactive)"}, {"measurement": "GI50", "setting": "[8]", "value": "> 100 µM (inactive)"}, {"measurement": "GI50", "setting": "[9]", "value": "38.7 µM (inactive)"}, {"measurement": "GI50", "setting": "[10]", "value": "> 100 µM (inactive)"}, {"measurement": "GI50", "setting": "[11]", "value": "> 100 µM (inactive)"}, {"measurement": "GI50", "setting": "[12]", "value": "> 100 µM (inactive)"}, {"measurement": "GI50", "setting": "[13]", "value": "37.4 µM (inactive)"}, {"measurement": "GI50", "setting": "[14]", "value": 94.2, "unit": "µM"}, {"measurement": "GI50", "setting": "[51]", "value": "63.2 µM (inactive)"}, {"measurement": "GI50", "setting": "[15]", "value": "> 100 µM (inactive)"}, {"measurement": "GI50", "setting": "[16]", "value": "> 100 µM (inactive)"}, {"measurement": "GI50", "setting": "[17]", "value": "> 100 µM (inactive)"}, {"measurement": "GI50", "setting": "[18]", "value": "65.6 µM (inactive)"}, {"measurement": "GI50", "setting": "[19]", "value": "> 100 µM (inactive)"}, {"measurement": "GI50", "setting": "[20]", "value": "53.6 µM (inactive)"}, {"measurement": "GI50", "setting": "[21]", "value": "> 100 µM (inactive)"}, {"measurement": "GI50", "setting": "[22]", "value": "> 100 µM (inactive)"}, {"measurement": "GI50", "setting": "[23]", "value": "85.9 µM (inactive)"}, {"measurement": "GI50", "setting": "[24]", "value": "85.3 µM (inactive)"}, {"measurement": "GI50", "setting": "[25]", "value": "> 100 µM (inactive)"}, {"measurement": "GI50", "setting": "[52]", "value": "> 100 µM (inactive)"}, {"measurement": "GI50", "setting": "[53]", "value": "40.9 µM (inactive)"}, {"measurement": "GI50", "setting": "[26]", "value": "> 100 µM (inactive)"}, {"measurement": "GI50", "setting": "[54]", "value": "> 100 µM (inactive)"}, {"measurement": "GI50", "setting": "[27]", "value": "> 100 µM (inactive)"}, {"measurement": "GI50", "setting": "[28]", "value": "71.9 µM (inactive)"}, {"measurement": "GI50", "setting": "[29]", "value": "54.7 µM (inactive)"}, {"measurement": "GI50", "setting": "[30]", "value": "> 100 µM (inactive)"}, {"measurement": "GI50", "setting": "[32]", "value": "> 100 µM (inactive)"}, {"measurement": "GI50", "setting": "[33]", "value": "> 100 µM (inactive)"}, {"measurement": "GI50", "setting": "[55]", "value": "33.7 µM (inactive)"}, {"measurement": "GI50", "setting": "[34]", "value": "> 100 µM (inactive)"}, {"measurement": "GI50", "setting": "[35]", "value": "> 100 µM (inactive)"}, {"measurement": "GI50", "setting": "[36]", "value": "> 100 µM (inactive)"}, {"measurement": "GI50", "setting": "[37]", "value": "> 100 µM (inactive)"}, {"measurement": "GI50", "setting": "[39]", "value": "> 100 µM (inactive)"}, {"measurement": "GI50", "setting": "[40]", "value": "> 100 µM (inactive)"}, {"measurement": "GI50", "setting": "[56]", "value": "> 100 µM (inactive)"}, {"measurement": "GI50", "setting": "[41]", "value": "> 100 µM (inactive)"}, {"measurement": "GI50", "setting": "[42]", "value": "> 100 µM (inactive)"}, {"measurement": "GI50", "setting": "[43]", "value": "> 100 µM (inactive)"}, {"measurement": "GI50", "setting": "[44]", "value": "> 100 µM (inactive)"}, {"measurement": "GI50", "setting": "[45]", "value": "> 100 µM (inactive)"}, {"measurement": "GI50", "setting": "[57]", "value": "78.7 µM (inactive)"}, {"measurement": "GI50", "setting": "[46]", "value": "17.4 µM (inactive)"}, {"measurement": "GI50", "setting": "[58]", "value": "> 100 µM (inactive)"}, {"measurement": "GI50", "setting": "[48]", "value": "> 100 µM (inactive)"}, {"measurement": "GI50", "setting": "[49]", "value": "> 100 µM (inactive)"}, {"measurement": "GI50", "setting": "[50]", "value": "> 100 µM (inactive)"}, {"measurement": "GI50", "setting": "[59]", "value": "92.7 µM (inactive)"}]}
